How the values were obtained:
Type in all cases: in vivo
[1] = test system: blackgrass (Alopecurus myosuroides); assay: Test A preemergence soil spray, visual injury rating 0-100; settings: 10 days
Summary of the method: (§1)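 Plants in a loam and sand soil blend were treated with each test chemical, in a non-phytotoxic solvent system including surfactant, either sprayed on seeded soil before emergence or applied after emergence at the one- to two-leaf stage. Ten days later in the greenhouse, plants were compared with untreated controls and visually rated from 0 (no effect) to 100 (complete control).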

[2] = test system: kochia (Bassia scoparia); assay: as above; settings: 10 days
Summary of the method: as §1

[3] = test system: barnyardgrass (Echinochloa crus-galli); assay: as above; settings: 10 days
Summary of the method: as §1

[4] = test system: corn (Zea mays); assay: as above; settings: 10 days
Summary of the method: as §1

[5] = test system: wheat (Triticum aestivum); assay: as above; settings: 10 days
Summary of the method: as §1

[6] = test system: oat, wild (wild oat, Avena fatua); assay: as above; settings: 10 days
Summary of the method: as §1

[7] = test system: ragweed (common ragweed, Ambrosia artemisiifolia); assay: as above; settings: 10 days
Summary of the method: as §1

[8] = test system: soybean (Glycine max); assay: as above; settings: 10 days
Summary of the method: as §1

[9] = test system: palmer (palmer amaranth, palmer pigweed, Amaranthus palmeri); assay: as above; settings: 10 days
Summary of the method: as §1

[10] = test system: ryegrass, Italian (italian ryegrass, Lolium multiflorum); assay: as above; settings: 10 days
Summary of the method: as §1

[11] = test system: green foxtail (Setaria viridis); assay: as above; settings: 10 days
Summary of the method: as §1

[12] = test system: sedge, umbrella (small-flower umbrella sedge, Cyperus difformis); assay: Test B flooded paddy test, visual plant response rating 0-100; settings: 250 g ai/ha, Flood, applied to paddy water, evaluated after 13 days
Summary of the method: (§2)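 Visual evaluation after 13 days. Water-applied treatment, 3 cm flood depth held constant, plants at 2-leaf stage at treatment.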

[13] = test system: ducksalad (Heteranthera limosa); assay: as above; settings: 250 g ai/ha, Flood, applied to paddy water, evaluated after 13 days
Summary of the method: as §2

[14] = test system: barnyardgrass (Echinochloa crusgalli); assay: as above; settings: 250 g ai/ha, Flood, applied to paddy water, evaluated after 13 days
Summary of the method: as §2

[15] = test system: rice (Oryza sativa); assay: as above; settings: 250 g ai/ha, Flood, applied to paddy water, evaluated after 13 days
Summary of the method: as §2

[16] = test system: blackgrass (Alopecurus myosuroides); assay: Test A postemergence application, visual injury rating 0-100
Summary of the method: as §1

[17] = test system: kochia (Bassia scoparia); assay: as above
Summary of the method: as §1

[18] = test system: barnyardgrass (Echinochloa crus-galli); assay: as above
Summary of the method: as §1

[19] = test system: corn (Zea mays); assay: as above
Summary of the method: as §1

[20] = test system: wheat (Triticum aestivum); assay: as above
Summary of the method: as §1

[21] = test system: oat, wild (wild oat, Avena fatua); assay: as above
Summary of the method: as §1

[22] = test system: galium (catchweed bedstraw, Galium aparine); assay: as above
Summary of the method: as §1

[23] = test system: ragweed (common ragweed, Ambrosia artemisiifolia); assay: as above
Summary of the method: as §1

[24] = test system: soybean (Glycine max); assay: as above
Summary of the method: as §1

[25] = test system: palmer (palmer amaranth, palmer pigweed, Amaranthus palmeri); assay: as above
Summary of the method: as §1

[26] = test system: ryegrass, Italian (italian ryegrass, Lolium multiflorum); assay: as above
Summary of the method: as §1

[27] = test system: horseweed (Erigeron canadensis); assay: as above
Summary of the method: as §1

[28] = test system: green foxtail (Setaria viridis); assay: as above
Summary of the method: as §1

[29] = 62 g ai/ha, 0 = no effect, 100 = complete control
[30] = 62 g ai/ha, postemergence, 10 days, 0 = no effect, 100 = complete control
[31] = Postemergence, 16 g ai/ha, greenhouse 10 days, 0 no effect, 100 complete control

Question: What does the source list for `C=CC1(C(=O)NC2CC(C(=O)OC)C2)CN(c2cc(F)cc(F)c2)C(=O)O1` (stereo not shown) [Compound 175]?
Answer: Blackgrass plant response rating ([1]; 16 g ai/ha, 0 to 100 scale): 40; Blackgrass plant response rating (0-100) [1, 29]: 60; Kochia plant response rating ([2]; 16 g ai/ha, 0 to 100 scale): 0; Kochia plant response rating (0-100) [2, 29]: 0; Barnyardgrass plant response rating ([3]; 16 g ai/ha, 0 to 100 scale): 0; Barnyardgrass plant response rating (0-100) [3, 29]: 50; Corn plant response rating ([4]; 16 g ai/ha, 0 to 100 scale): 0; Corn plant response rating (0-100) [4, 29]: 0; Wheat plant response rating ([5]; 16 g ai/ha, 0 to 100 scale): 40; Wheat plant response rating (0-100) [5, 29]: 90; Oat, Wild plant response rating ([6]; 16 g ai/ha, 0 to 100 scale): 0; Oat, Wild plant response rating (0-100) [6, 29]: 0; Ragweed plant response rating ([7]; 16 g ai/ha, 0 to 100 scale): 0; Ragweed plant response rating (0-100) [7, 29]: 0; Soybean plant response rating ([8]; 16 g ai/ha, 0 to 100 scale): 0; Soybean plant response rating (0-100) [8, 29]: 0; Pigweed, Palmer plant response rating ([9]; 16 g ai/ha, 0 to 100 scale): 0; Pigweed, Palmer plant response rating (0-100) [9, 29]: 0; Ryegrass, Italian plant response rating ([10]; 16 g ai/ha, 0 to 100 scale): 10; Ryegrass, Italian plant response rating (0-100) [10, 29]: 90; Foxtail, Green plant response rating ([11]; 16 g ai/ha, 0 to 100 scale): 0; Foxtail, Green plant response rating (0-100) [11, 29]: 90; Plant response rating, Sedge, Umbrella (0 to 100 scale, 0 is no effect and 100 is complete control) [12]: 0; Plant response rating, Ducksalad (0 to 100 scale, 0 is no effect and 100 is complete control) [13]: 0; Plant response rating, Barnyardgrass (0 to 100 scale, 0 is no effect and 100 is complete control) [14]: 0; Plant response rating, Rice (0 to 100 scale, 0 is no effect and 100 is complete control) [15]: 0; Blackgrass plant response rating (0-100) [16, 30]: 90; Blackgrass plant response rating (0 to 100 scale) [16, 31]: 60; Kochia plant response rating (0-100) [17, 30]: 0; Kochia plant response rating (0 to 100 scale) [17, 31]: 0; Barnyardgrass plant response rating (0-100) [18, 30]: 70; Barnyardgrass plant response rating (0 to 100 scale) [18, 31]: 0; Corn plant response rating (0-100) [19, 30]: 20; Corn plant response rating (0 to 100 scale) [19, 31]: 0; Wheat plant response rating (0-100) [20, 30]: 70; Wheat plant response rating (0 to 100 scale) [20, 31]: 30; Oat, Wild plant response rating (0-100) [21, 30]: 80; Oat, Wild plant response rating (0 to 100 scale) [21, 31]: 60; Galium plant response rating (0-100) [22, 30]: 90; Galium plant response rating (0 to 100 scale) [22, 31]: 90; Ragweed plant response rating (0-100) [23, 30]: 0; Ragweed plant response rating (0 to 100 scale) [23, 31]: 0; Soybean plant response rating (0-100) [24, 30]: 60; Soybean plant response rating (0 to 100 scale) [24, 31]: 0; Pigweed, Palmer plant response rating (0-100) [25, 30]: 10; Pigweed, Palmer plant response rating (0 to 100 scale) [25, 31]: 0; Ryegrass, Italian plant response rating (0-100) [26, 30]: 100; Ryegrass, Italian plant response rating (0 to 100 scale) [26, 31]: 70; Horseweed plant response rating (0-100) [27, 30]: 0; Horseweed plant response rating (0 to 100 scale) [27, 31]: 0; Foxtail, Green plant response rating (0-100) [28, 30]: 90; Foxtail, Green plant response rating (0 to 100 scale) [28, 31]: 30

Source: US20260285850A1, “SUBSTITUTED OXAZOLIDINONES AND IMIDAZOLINONES AS HERBICIDES” (FMC CORPORATION, priority 2023, published 2026)
